The text below walks through data of patent publication US12139473B2, “Substituted-N-heteroaryl compounds and uses thereof” (Bionomics Limited, priority 2019, dated 2024).

In one test the target is T1, hKv3.2 (Homo sapiens, UniProt Q96PR1).
T1 construct: expressed in transfected cells
T1 sequence (Q96PR1 1-638): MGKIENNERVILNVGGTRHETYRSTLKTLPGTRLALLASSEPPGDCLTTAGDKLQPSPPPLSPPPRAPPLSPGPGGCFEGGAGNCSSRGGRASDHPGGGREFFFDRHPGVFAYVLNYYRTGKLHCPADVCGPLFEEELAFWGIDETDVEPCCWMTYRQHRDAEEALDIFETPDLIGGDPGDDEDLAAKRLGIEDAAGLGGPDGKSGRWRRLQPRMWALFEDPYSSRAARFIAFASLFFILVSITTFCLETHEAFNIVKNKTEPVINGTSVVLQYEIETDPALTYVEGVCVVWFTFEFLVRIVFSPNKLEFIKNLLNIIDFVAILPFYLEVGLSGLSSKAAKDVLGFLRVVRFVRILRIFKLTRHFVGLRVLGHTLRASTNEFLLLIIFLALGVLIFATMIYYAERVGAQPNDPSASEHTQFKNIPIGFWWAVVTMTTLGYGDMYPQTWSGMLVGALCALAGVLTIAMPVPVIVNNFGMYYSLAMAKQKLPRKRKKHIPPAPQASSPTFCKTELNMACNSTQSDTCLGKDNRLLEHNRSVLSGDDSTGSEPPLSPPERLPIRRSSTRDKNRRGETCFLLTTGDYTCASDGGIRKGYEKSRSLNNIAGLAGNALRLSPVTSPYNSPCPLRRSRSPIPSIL
In words: Automated patch clamp electrophysiology (Patchliner), CHO/Kv3.2 cells. To be noted: 10 μM compound, hKv3.2 in CHO-K1, whole-cell; for activation at 10 µM: peak current at voltage step of −10 mV vs vehicle (0.33% DMSO), read-out: Kv3.2 Activity at 10 μM Potentiation (%); for Kv3.2 Activity at 10 μM Voltage Shift (mV): voltage shift of the IV curve at V1/2. The test is classed as cell-based. The procedure: hKv3.1, hKv3.2, hKv3.3, and hKv3.4 were stably expressed in CHO-K1 (Chinese hamster ovary) cells and kept under constant antibiotic selection. For in vitro assays, cells were maintained in appropriate growth medium at 37° C. and 5% CO2 in a humidified incubator.
hKv3.X expressing cells were plated in T-25 flasks for 3-4 days at 37° C. (no selection antibiotic) prior to use and grown to 80% confluence. Cells were washed twice with PBS (calcium and magnesium free) and detached with a 5-minute treatment at 37° C. with 2-3 mls of Accutase®. Cells were collected, and flask was washed in CHO-SFM II media (Life Technologies Gibco), centrifuged for 2 minutes at ˜110×g and resuspended to obtain a single cell suspension of ˜2-3×10^6 cells/ml.
The intracellular solution contained the following (in mM): KCl 50, NaCl 10, KF 60, EGTA 20, HEPES 10, adjusted to pH 7.2 with KOH and an osmolarity of 285 mOsmol. Seal enhancer was purchased from Nanion (80 mM NaCl, 3 mM KCl, 10 mM MgCl2, 35 mM CaCl2), 10 mM HEPES, pH7.4, 298 mOsmol. The external solution contained (in mM): NaCl 140, KCl 4, CaCl2) 2, MgCl2 1, HEPES 10, Glucose 5, adjusted to pH7.4 and an osmolarity of 298 mOsmol.
All compounds were initially tested at 10 uM at a final DMSO concentration of 0.33%. Compounds were dissolved in dimethylsulfoxide (DMSO) at a stock concentration of 30 mM. The compound was further diluted 1:10 to give a stock concentration of 3 mM in DMSO. The final assay solution was diluted 1:300 in External solution to give a final concentration of 10 uM. For the DMSO Control Buffer 30 uL of DMSO was added to 10 mL buffer.
All electrophysiological recordings were performed at ambient temperature (21-23° C.) using automated patch clamp (Patchliner, Nanion Technologies GmbH) in the whole-cell configuration.
Cell membrane potentials were held at −80 mV, and currents were evoked by voltage steps (1000 ms duration) from −60 to +60 mV in 10 mV increments. This was performed first with vehicle (0.33% DMSO) and then with 10 uM compound, after a 3-minute incubation period. Data was taken from 4 cells per assay.
The recordings were analysed and selected using peak current amplitude (>100 pA at the −10 mV voltage step) in the absence of compound to eliminate unsuitable cells from analysis. Peak current amplitude was measured and recorded for each voltage step and data was normalised to the maximum current at +60 mV. The normalised Kv3.x currents following addition of the compound were then compared with the currents recorded prior to compound addition (vehicle control). Positive modulation was determined as % potentiation at the voltage step of −10 mV=[current (cmpd)/current (veh)]*100−100. % potentiation≥50% was considered acceptable. In addition, voltage shift of the IV curve at V1/2 was measured. V1/2 of ≥−5 mV was also considered acceptable. IV curves were plotted in GraphPad Prism (software version 6.0) and fitted with a Boltzmann equation, where V1/2 is the voltage at half-maximal activation.

In the next test the target is T2, hKv3.1 (Homo sapiens, UniProt P48547).
T2 construct: expressed in transfected cells
T2 sequence (P48547 1-511): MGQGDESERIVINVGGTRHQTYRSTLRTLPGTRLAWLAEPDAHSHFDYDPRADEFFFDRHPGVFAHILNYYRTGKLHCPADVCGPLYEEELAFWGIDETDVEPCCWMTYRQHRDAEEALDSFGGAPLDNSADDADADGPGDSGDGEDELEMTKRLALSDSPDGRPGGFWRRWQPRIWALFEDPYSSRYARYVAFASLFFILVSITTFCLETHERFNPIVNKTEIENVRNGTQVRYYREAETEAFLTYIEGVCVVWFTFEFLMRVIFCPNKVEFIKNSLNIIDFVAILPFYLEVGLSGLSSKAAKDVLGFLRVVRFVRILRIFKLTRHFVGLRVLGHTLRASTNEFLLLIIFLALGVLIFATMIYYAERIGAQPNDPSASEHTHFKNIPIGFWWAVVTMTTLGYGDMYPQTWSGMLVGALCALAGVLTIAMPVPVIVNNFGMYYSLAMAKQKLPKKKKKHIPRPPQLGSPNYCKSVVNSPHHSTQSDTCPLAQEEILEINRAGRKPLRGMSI
In words: Automated patch clamp electrophysiology (Patchliner), CHO/Kv3.1 cells. The test is classed as cell-based. As to conditions: 10 μM compound, hKv3.1 in CHO-K1, whole-cell; for Kv3.1 Activity at 10 μM Potentiation (%): peak current at voltage step of −10 mV vs vehicle (0.33% DMSO); for Kv3.1 Activity at 10 μM Voltage Shift (mV): voltage shift of the IV curve at V1/2. The method, boiled down: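 Whole-cell automated patch clamp on CHO-K1 stably expressing hKv3.1 or hKv3.2, 21-23 °C, held at −80 mV with 1000 ms steps from −60 to +60 mV. Compound at 10 uM final (0.33% DMSO) after 3-min incubation versus vehicle, 4 cells; % potentiation at −10 mV and Boltzmann-fitted V1/2 shift.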

With `COc1cc(Oc2nccc(N3C(=O)NC(C)(C)C3=O)n2)ccc1C(F)(F)F` [Example 65, 3-[2-[3-methoxy-4-(trifluoromethyl)-phenoxy]pyrimidin-4-yl]-5,5-dimethyl-imidazolidine-2,4-dione], at hKv3.2, the activation at 10 µM worked out at 35% and the “Kv3.2 Activity at 10 μM Voltage Shift (mV)” value is listed as −2.8 mV. At hKv3.1, the “Kv3.1 Activity at 10 μM Potentiation (%)” value was found to be 32% and the “Kv3.1 Activity at 10 μM Voltage Shift (mV)” value is −2.7 mV.

For `COc1cc(Oc2nccc(N3C(=O)NC4(CCCCC4)C3=O)n2)ccc1C` [Example 74, 3-[2-(3-methoxy-4-methyl-phenoxy)pyrimidin-4-yl]-1,3-diazaspiro[4.5]decane-2,4-dione], on hKv3.2, the activation at 10 µM came out at 12% and the “Kv3.2 Activity at 10 μM Voltage Shift (mV)” value was −1.6 mV. Further, at hKv3.1, the “Kv3.1 Activity at 10 μM Potentiation (%)” value came to 41% and the “Kv3.1 Activity at 10 μM Voltage Shift (mV)” value was −3.8 mV.
